We go through five compounds from patent publication US12187723B2 (BRISTOL-MYERS SQUIBB COMPANY, priority 2019, dated 2025).

In general, pIC50 refers to the negative decadic logarithm of the IC50, by convention in mol/L.

Type in all cases: cell-based
Assay [1] addresses T1, human TLR8 (Homo sapiens, UniProt Q9NR97).
T1 construct: host or cells: HEK-Blue cells
T1 sequence (Q9NR97 27-1041): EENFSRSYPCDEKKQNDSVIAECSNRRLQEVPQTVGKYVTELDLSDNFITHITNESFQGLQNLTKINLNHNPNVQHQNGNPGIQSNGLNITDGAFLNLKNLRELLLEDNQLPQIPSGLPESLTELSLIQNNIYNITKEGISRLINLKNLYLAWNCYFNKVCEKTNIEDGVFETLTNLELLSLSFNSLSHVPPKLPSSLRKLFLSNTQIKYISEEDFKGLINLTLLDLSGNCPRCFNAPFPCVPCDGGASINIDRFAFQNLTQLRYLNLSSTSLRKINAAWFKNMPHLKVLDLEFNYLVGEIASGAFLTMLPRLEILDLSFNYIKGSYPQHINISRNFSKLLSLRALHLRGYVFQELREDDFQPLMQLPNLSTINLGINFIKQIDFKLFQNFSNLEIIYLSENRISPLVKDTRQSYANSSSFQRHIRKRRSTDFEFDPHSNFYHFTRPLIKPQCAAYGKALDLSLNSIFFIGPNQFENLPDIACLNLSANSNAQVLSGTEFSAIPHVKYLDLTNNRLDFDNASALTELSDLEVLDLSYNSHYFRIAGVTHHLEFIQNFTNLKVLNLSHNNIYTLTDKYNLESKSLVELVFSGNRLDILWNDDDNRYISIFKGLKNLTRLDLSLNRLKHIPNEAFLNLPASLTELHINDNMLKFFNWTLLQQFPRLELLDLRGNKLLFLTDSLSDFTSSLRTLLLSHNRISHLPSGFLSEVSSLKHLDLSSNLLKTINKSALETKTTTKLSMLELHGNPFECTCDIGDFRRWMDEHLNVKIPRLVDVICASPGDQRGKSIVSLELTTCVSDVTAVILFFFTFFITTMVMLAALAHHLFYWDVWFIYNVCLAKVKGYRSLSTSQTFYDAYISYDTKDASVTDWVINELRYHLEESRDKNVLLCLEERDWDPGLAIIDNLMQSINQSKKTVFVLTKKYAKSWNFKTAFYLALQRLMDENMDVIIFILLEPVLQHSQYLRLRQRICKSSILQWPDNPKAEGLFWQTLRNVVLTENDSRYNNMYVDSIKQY
Description: TLR8 inhibition reporter assay (HEK-Blue SEAP). The settings on record: HEK-Blue cells overexpressing human TLR8, R848 15.9 μM, 22 hour incubation. On the procedure: (§1) TLR7/8/9 Inhibition Reporter Assays
(§2) HEK-Blue™-cells (Invivogen) overexpressing human TLR7, TLR8 or TLR9 receptors were used for screening inhibitors of these receptors using an inducible SEAP (secreted embryonic alkaline phosphatase) reporter gene under the control of the IFN-β minimal promoter fused to five NF-κB and AP-1-binding sites. Briefly, cells are seeded into Greiner 384 well plates (15000 cells per well for TLR7, 20,000 for TLR8 and 25,000 for TLR9) and then treated with test compounds in DMSO to yield a final dose response concentration range of 0.05 nM-50 μM. After a 30 minute compound pre-treatment at room temperature, the cells are then stimulated with a TLR7 ligand (gardiquimod at a final concentration of 7.5 μM), TLR8 ligand (R848 at a final concentration of 15.9 μM) or TLR9 ligand (ODN2006 at a final concentration of 5 nM) to activate NF-κB and AP-1 which induce the production of SEAP. After a 22 hour incubation at 37° C., 5% CO2, SEAP levels are determined with the addition of HEK-Blue™ Detection reagent (Invivogen), a cell culture medium that allows for detection of SEAP, according to manufacturer's specifications. The percent inhibition is determined as the % reduction in the HEK-Blue signal present in wells treated with agonist plus DMSO alone compared to wells treated with a known inhibitor.
(Reporter assays use an easily measured gene product as a stand-in for the process of interest.)

For assay [2], the target named is T2, human TLR9 (Homo sapiens, UniProt Q9NR96).
T2 construct: host or cells: HEK-Blue cells
T2 sequence (Q9NR96 26-1032): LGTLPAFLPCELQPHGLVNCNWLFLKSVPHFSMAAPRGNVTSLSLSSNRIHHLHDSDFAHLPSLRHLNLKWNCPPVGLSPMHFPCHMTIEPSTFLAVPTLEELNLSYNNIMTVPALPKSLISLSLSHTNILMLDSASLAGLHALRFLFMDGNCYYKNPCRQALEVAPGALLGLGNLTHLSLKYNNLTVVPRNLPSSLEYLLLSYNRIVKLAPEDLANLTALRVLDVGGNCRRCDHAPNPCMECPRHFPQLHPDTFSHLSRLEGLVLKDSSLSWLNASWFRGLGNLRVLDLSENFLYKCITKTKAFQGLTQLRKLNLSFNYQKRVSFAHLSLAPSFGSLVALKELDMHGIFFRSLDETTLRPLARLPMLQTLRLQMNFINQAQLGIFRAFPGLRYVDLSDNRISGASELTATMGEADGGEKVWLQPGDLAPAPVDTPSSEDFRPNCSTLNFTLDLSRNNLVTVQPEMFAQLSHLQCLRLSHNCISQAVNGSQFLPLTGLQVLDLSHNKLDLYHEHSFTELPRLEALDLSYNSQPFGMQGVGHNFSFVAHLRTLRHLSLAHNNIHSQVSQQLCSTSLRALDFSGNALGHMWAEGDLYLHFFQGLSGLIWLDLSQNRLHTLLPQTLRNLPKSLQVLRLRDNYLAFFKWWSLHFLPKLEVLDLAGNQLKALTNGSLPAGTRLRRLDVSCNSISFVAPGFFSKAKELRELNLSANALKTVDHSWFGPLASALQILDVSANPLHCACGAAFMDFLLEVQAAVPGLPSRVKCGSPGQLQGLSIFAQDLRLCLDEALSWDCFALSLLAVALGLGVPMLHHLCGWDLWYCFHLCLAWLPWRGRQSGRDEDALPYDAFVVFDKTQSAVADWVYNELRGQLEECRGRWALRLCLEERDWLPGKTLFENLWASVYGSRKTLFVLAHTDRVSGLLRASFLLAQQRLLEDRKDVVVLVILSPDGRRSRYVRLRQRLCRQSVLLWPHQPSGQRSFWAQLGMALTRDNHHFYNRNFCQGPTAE
Kind of assay: TLR9 inhibition reporter assay (HEK-Blue SEAP). The settings on record: HEK-Blue cells overexpressing human TLR9, ODN2006 5 nM, 22 hour incubation. On the procedure:
as §1, §2

The target in assay [3] is T3, human TLR7 (Homo sapiens, UniProt Q9NYK1).
T3 construct: host or cells: HEK-Blue cells
T3 sequence (Q9NYK1 27-1049): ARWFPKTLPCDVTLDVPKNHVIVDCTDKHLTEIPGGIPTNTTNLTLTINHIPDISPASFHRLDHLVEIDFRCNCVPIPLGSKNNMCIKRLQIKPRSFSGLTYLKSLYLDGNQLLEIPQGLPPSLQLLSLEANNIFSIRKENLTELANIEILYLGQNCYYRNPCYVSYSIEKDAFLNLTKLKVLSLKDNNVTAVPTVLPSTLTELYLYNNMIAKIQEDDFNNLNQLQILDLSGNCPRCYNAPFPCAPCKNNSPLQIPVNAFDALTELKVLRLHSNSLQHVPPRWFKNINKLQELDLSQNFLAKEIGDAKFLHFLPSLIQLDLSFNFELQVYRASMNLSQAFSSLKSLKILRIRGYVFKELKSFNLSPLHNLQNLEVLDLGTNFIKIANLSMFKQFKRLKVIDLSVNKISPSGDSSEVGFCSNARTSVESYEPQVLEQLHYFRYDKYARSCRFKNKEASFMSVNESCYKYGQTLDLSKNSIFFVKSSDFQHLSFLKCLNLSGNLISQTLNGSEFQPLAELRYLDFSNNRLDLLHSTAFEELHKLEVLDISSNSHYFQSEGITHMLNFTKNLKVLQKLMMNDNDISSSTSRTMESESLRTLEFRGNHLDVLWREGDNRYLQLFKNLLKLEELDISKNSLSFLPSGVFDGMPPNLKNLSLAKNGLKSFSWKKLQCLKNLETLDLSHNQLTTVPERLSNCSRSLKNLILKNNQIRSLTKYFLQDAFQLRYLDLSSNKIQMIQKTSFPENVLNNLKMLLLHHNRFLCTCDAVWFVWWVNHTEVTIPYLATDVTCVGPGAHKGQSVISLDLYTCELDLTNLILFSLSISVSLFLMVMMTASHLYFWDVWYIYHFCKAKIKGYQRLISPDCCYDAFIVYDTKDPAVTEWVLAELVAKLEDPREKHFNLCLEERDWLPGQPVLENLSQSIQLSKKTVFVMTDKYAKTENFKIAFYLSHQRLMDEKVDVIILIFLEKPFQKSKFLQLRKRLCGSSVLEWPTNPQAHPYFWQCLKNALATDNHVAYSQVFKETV
Kind of assay: TLR7 inhibition reporter assay (HEK-Blue SEAP). The settings on record: HEK-Blue cells overexpressing human TLR7, gardiquimod 7.5 μM, 22 hour incubation. How it is done: as §1
Briefly, cells are seeded into Greiner 384 well plates (15000 cells per well for TLR7, 20,000 for TLR8 and 25,000 for TLR9) and then treated with test compounds in DMSO to yield a final dose response concentration range of 0.05 nM-50 μM. […] After a 22 hour incubation at 37° C., 5% CO2, SEAP levels are determined with the addition of HEK-Blue™ Detection reagent (Invivogen), a cell culture medium that allows for detection of SEAP, according to manufacturer's specifications. The percent inhibition is determined as the % reduction in the HEK-Blue signal present in wells treated with agonist plus DMSO alone compared to wells treated with a known inhibitor.

pIC50: −log10 of the molar value.

With `Cc1cc2c(cc1-c1cc(C)c3ncnn3c1)[nH]c(=O)n2[C@@H]1CCCN(CCC(C)C)C1` [Example 38, (R)-1-(1-isopentylpiperidin-3-yl)-6-methyl-5-(8-methyl-[1,2,4]triazolo[1,5-a]pyridin-6-yl)-1,3-dihydro-2H-benzo[d]imidazol-2-one], the pIC50 in assay [1] was 7.78; in assay [2] it was 5.30.
On to `CCc1cc2c(cc1-c1cc(OC)c3ncnn3c1)[nH]c(=O)n2[C@@H]1CCCN(C2CCCOC2)C1` (stereo partly drawn) [Example 214, 6-ethyl-5-(8-methoxy-[1,2,4]triazolo[1,5-a]pyridin-6-yl)-1-((3R)-1-(tetrahydro-2H-pyran-3-yl)piperidin-3-yl)-1,3-dihydro-2H-benzo[d]imidazol-2-one], for which the figures for the negative-log IC50 (pIC50) in assay [3] and in assay [1] were 7.77 and 7.71, respectively.
The corresponding values for `Cc1c(-c2cc3[nH]c(=O)n([C@@H]4CCCN(CC(C)(C)C)C4)c3cc2C(C)C)cn2ncnc2c1C` [Example 152, (R)-5-(7,8-dimethyl-[1,2,4]triazolo[1,5-a]pyridin-6-yl)-6-isopropyl-1-(1-neopentylpiperidin-3-yl)-1,3-dihydro-2H-benzo[d]imidazol-2-one] are 8.26 and 7.61.
For `COc1cc(-c2cc3[nH]c(=O)n(C4CCC(N5CC6(C5)CS(=O)(=O)C6)CC4)c3cc2C(C)C)cn2ncnc12` (single isomer, unassigned) [Example 244, 1-(4-(2,2-dioxido-2-thia-6-azaspiro[3.3]heptan-6-yl)cyclohexyl)-6-isopropyl-5-(8-methoxy-[1,2,4]triazolo[1,5-a]pyridin-6-yl)-1,3-dihydro-2H-benzo[d]imidazol-2-one], the pIC50 is 8.08 in assay [3] and 8.45 in assay [1].
As to `CCc1cc2c(cc1-c1cc(OC)c3ncnn3c1)[nH]c(=O)n2[C@@H]1CCCN(C(C)CC)C1` (stereo partly drawn) [Example 176, 1-((3R)-1-(sec-butyl)piperidin-3-yl)-6-ethyl-5-(8-methoxy-[1,2,4]triazolo[1,5-a]pyridin-6-yl)-1,3-dihydro-2H-benzo[d]imidazol-2-one], the pIC50 in assay [3] was 8.47; in assay [1], 8.10.
